This is an account of results in US4246340A, “Method and reagent for bioluminiscence” (LKB-Producter AB, priority 1979, dated 1981).

The target of assay [1] is T1, luciferase (Photinus pyralis, UniProt P08659). Briefly: Inhibition of the luciferase reaction (literature Ki values). Type of assay: biochemical. The conditions noted are these: if 10^-6 M ATP generated 10^-6 M AMP; estimated from Ki; 1 µM. An excerpt: To the extent free AMP and free oxluciferin are formed in the reaction it could also be of interest to study whether this would affect the product inhibition. […] Consequently it may under certain conditions be important to counteract the effect of the generation of free oxyluciferin. The addition of D-luciferin analog makes the initial inhibition of the luciferase so big that the additional inhibition from the oxyluciferin, which is continuously formed during the reaction, will be negligible. The addition of inhibiting concentrations of a D-luciferin analog will thus stabilize the light level.

For assay [2], the target named is T1, luciferase. The following applies: inhibition of luciferase; literature value; cited from earlier work.

T1 sequence (P08659 whole entry): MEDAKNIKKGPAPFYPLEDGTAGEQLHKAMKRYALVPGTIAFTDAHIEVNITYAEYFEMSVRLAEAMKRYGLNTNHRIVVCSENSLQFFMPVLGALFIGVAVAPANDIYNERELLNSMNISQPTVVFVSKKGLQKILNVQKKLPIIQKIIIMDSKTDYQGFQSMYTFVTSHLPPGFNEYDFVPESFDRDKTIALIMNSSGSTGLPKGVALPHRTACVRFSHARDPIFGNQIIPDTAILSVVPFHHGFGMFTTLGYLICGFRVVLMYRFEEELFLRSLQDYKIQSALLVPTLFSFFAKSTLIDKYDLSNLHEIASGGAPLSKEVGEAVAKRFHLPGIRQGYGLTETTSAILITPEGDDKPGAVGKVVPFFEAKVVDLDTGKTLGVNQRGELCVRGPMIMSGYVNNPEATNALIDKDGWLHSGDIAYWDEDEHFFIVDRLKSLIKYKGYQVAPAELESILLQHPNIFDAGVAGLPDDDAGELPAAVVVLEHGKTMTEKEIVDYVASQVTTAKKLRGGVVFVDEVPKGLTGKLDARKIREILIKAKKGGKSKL

As for `Nc1ncnc2c1ncn2[C@@H]1O[C@H](COP(=O)(O)O)[C@@H](O)[C@H]1O` [AMP, adenosinel monophosphate], the “effect on the luciferase activity” value at luciferase [1] was “less than 0.5%”. Moreover, the inhibition constant (Ki) (usually the dissociation constant of the complex between target and ligand, obtained from inhibition or displacement) at luciferase [2] was 240 µM.

Consider `O=C1CSC(c2nc3ccc(O)cc3s2)=N1` [oxyluciferin], for which the Ki on luciferase [2] is 0.23 µM.
